Reference: PubChem BioAssay AID1508603 (National Center for Advancing Translational Sciences (NCATS), 2020)

System: human liver cytosol stability, half-life
Test: NCATS Human Liver Cytosol Stability Profiling
Details: higher = more stable
Method: Assay submitter (PI): Pranav Shah Ph.D.
NIH Center for Advancing Translational Sciences
Over the last few decades, chemists have become skilled at designing compounds that avoid cytochrome P (CYP) 450 mediated metabolism. Typical screening assays are performed in liver microsomal fractions and it is possible to overlook the contribution of cytosolic enzymes until much later in the drug discovery process. Few data exist on cytosolic enzyme-mediated metabolism and no reliable tools are available to chemists to help design away from such liabilities. In this study, we screened 1450 compounds for liver cytosol-mediated metabolic stability and extracted transformation rules that might help medicinal chemists in optimizing compounds with these liabilities. […] Matched molecular pairs analysis was performed in conjunction with qualitative-structure activity relationship modeling to identify chemical structure transformations affecting cytosolic stability. The transformation rules were prospectively validated on the test set. In addition, selected rules were validated on a diverse chemical library and the resulting pairs were experimentally tested to confirm whether the identified transformations could be generalized. The validation results, comprising nearly 250 library compounds and corresponding half-life data, are made publicly available. The datasets were also used to generate in silico classification models, based on different molecular descriptors and machine learning methods, to predict cytosol-mediated liabilities. To the best of our knowledge, this is the first systematic in silico effort to address cytosolic enzyme-mediated liabilities (Shah 2020).
Shah, P., Siramshetty, V.B., Zakharov, A.V. et al. Predicting liver cytosol stability of small molecules. J Cheminform 12, 21 (2020). https://doi.org/10.1186/s13321-020-00426-7
Compounds are classified as unstable (t 1/2 < 30 min) or stable (t 1/2 > 30 min).
1. Shah, P. et al. An Automated High-Throughput Metabolic Stability Assay Using an Integrated High-Resolution Accurate Mass Method and Automated Data Analysis Software. Drug Metab Dispos 44, 1653-1661 (2016). PMID 27417180

Q: With `N#Cc1cccc(-c2c(C(=O)N3CCOCC3)nc3sccn23)c1` as the molecule, how does the half-life read?
A: > 2 h

Q: `COC1CCC12CCN(C(=O)c1ccc(C#N)cc1)CC2` (stereo not drawn) was tested. Which half-life did it give?
A: 1.32 h

Q: Which half-life does the source give for `CN1CCN(C(=O)c2ccc3nccn3c2)CC1` here?
A: > 2 h

Q: For `N#Cc1cccc(CN2CC[C@H](c3nnc(-c4ccco4)o3)C2)c1`, which half-life is on record?
A: > 2 h

Q: How did the half-life turn out when `Cn1cnc2ccc(Nc3cccc(F)c3)nc2c1=O` was run?
A: 1.92 h

Q: How did the half-life turn out when `N#Cc1cccc(CN2C[C@@H](CO)[C@H](c3ccccn3)C2)c1` was run?
A: 0.957 h

Q: How did the half-life turn out when `COc1cccc(CN2CC[C@H](c3nc4ccccc4[nH]3)C2)c1` was run?
A: > 2 h

Q: For `O=C(O)c1ccc(CN2CC(COc3ccccc3)C3(C2)CN(c2ccccc2)C3)cc1` (stereo not drawn), which half-life is on record?
A: > 2 h

Q: How did the half-life turn out when `CNC(=O)[C@@H]1CN(C(=O)c2cccc(OC)c2)C[C@H]1COC` was run?
A: > 2 h

Q: Which half-life does the source give for `Fc1cccc(Nc2ncc(-c3cccnc3)c3c2OCC3)c1` here?
A: 1.28 h

Q: Which half-life does the source give for `O=C(c1ccsc1)N1CCC(Oc2cccc(F)c2)C1` (stereo not drawn) here?
A: 1.38 h

Q: With `O=C(NCCc1cnc[nH]1)c1ccc(-c2ncc3cnc(-c4cccc(F)c4)cn23)cc1` as the molecule, how does the half-life read?
A: 0.248 h

Q: Which half-life does the source give for `COc1ccc(CN2CC[C@H](c3nnc(C)o3)C2)cc1` here?
A: > 2 h

Q: With `N#Cc1cccc(-c2cn3c(n2)N(C(=O)c2ccco2)CCC3)c1` as the molecule, how does the half-life read?
A: 0.612 h

Q: With `COc1cccc(-c2c(C(=O)Nc3ccc(C)cc3)nc3sccn23)c1` as the molecule, how does the half-life read?
A: 1.55 h

Q: How did the half-life turn out when `Fc1cccc(-c2cnc(Nc3cncnc3)c3c2CCO3)c1` was run?
A: 0.16 h

Q: Which half-life does the source give for `COc1ccc(CN2CC(N3CCc4ccccc43)C2)cc1` here?
A: 1.37 h

Q: How did the half-life turn out when `COc1cccc(-c2cn3c(n2)N(C(=O)c2ccco2)CCC3)c1` was run?
A: 0.993 h

Q: How did the half-life turn out when `Fc1cccc(-c2cnc(Nc3cccnc3)c3c2CCO3)c1` was run?
A: > 2 h

Q: Which half-life does the source give for `CN(CC1CCOC1)C(=O)Nc1ccccc1` (stereo not drawn) here?
A: > 2 h

Q: `O=C(c1ccncc1)N1CCC(Oc2cccc(F)c2)C1` (stereo not drawn) was tested. Which half-life did it give?
A: > 2 h

Q: For `N#Cc1ccnc(-c2nnc3ccc(NCc4cnccn4)nn23)c1`, which half-life is on record?
A: > 2 h

Q: For `CCN1CCN(C(=O)c2cc(-c3ccccc3OC)c3nncn3n2)CC1`, which half-life is on record?
A: > 2 h

Q: With `CN1c2cc(C(=O)Nc3ccc(S(N)(=O)=O)cc3)ccc2C(=O)N2CCCCC21` (stereo not drawn) as the molecule, how does the half-life read?
A: > 2 h

Q: For `CC(=O)N1CCC(Cc2ccc(C(=O)O)cc2)CC1`, which half-life is on record?
A: > 2 h

Q: With `COc1cccc(CN2CCC3(CC2)OCCN(C)C3=O)c1` as the molecule, how does the half-life read?
A: > 2 h

Q: Which half-life does the source give for `N#Cc1cncc(N2CC3CCC(C2)N3CC(F)(F)F)c1` here?
A: > 2 h

Q: For `O=C(N1CCN(S(=O)(=O)c2cccc(F)c2)CC1)N1CC2CC(C1)[C@H]1CCCC(=O)N1C2` (stereo partly drawn), which half-life is on record?
A: > 2 h

Q: How did the half-life turn out when `Cc1cc(F)ccc1OC1CN(Cc2ccc(C#N)cc2)C1` was run?
A: 0.59 h

Q: How did the half-life turn out when `Cc1ccc(NC(=O)c2nc3sccn3c2-c2cccc(C#N)c2)cc1` was run?
A: 0.29 h

Q: How did the half-life turn out when `N#Cc1cccc(CN2CCOC[C@H](O)C2)c1` was run?
A: 0.852 h

Q: Which half-life does the source give for `COCCOC1CCN(C(=O)Nc2ccccc2)CC1` here?
A: > 2 h

Q: For `CCOCCOC1CCN(C(=O)Nc2ccccc2)CC1`, which half-life is on record?
A: > 2 h

Q: `COc1ccc(CN2CC(Oc3ccc(F)cc3C)C2)cc1` was tested. Which half-life did it give?
A: 0.35 h

Q: Which half-life does the source give for `Cc1noc(-c2cn(C3CCN(C(=O)c4cccc(F)c4)C3)nn2)n1` (stereo not drawn) here?
A: > 2 h

Q: For `Cc1nn2c(c1-c1ccccc1Oc1ccccc1)N(Cc1ccc(C(=O)O)cc1)CCC2`, which half-life is on record?
A: > 2 h

Q: How did the half-life turn out when `N#Cc1ccc(CN2CC(Oc3ccc(F)cc3F)C2)cc1` was run?
A: 1.05 h

Q: How did the half-life turn out when `N#Cc1ccc(C(=O)N2CCOC[C@H](Oc3cnccn3)C2)cc1` was run?
A: > 2 h

Q: How did the half-life turn out when `N#Cc1ccc(CN2CC(N3CCc4ccccc43)C2)cc1` was run?
A: 1.61 h

Q: With `O=C(O)c1ccc(-c2ncc3cnc(-c4cccc(F)c4)cn23)cc1` as the molecule, how does the half-life read?
A: > 2 h

Q: For `O=C(NCCCn1ccnc1)c1ccc(-c2ncc3cnc(-c4cccc(F)c4)cn23)cc1`, which half-life is on record?
A: 0.847 h

Q: With `Cc1cc2cc(-c3c(C)noc3C)nc(Nc3cccc(F)c3)c2o1` as the molecule, how does the half-life read?
A: 0.137 h

Q: How did the half-life turn out when `CN1CCN(C(=O)Cc2cccn2-c2ccc(F)cc2)CC1` was run?
A: > 2 h
